Measured values as given in PubChem BioAssay (NCI).
Several values for one entry are separate records, joined by “and”; a condition that tells them apart may be missing. Identical values can stand only once.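 The compound was tested at five concentrations on cells cultured in 96-well plates, with a 48-hour exposure period. GI50 = concentration required for 50% inhibition of growth. The concentration for full growth arrest is given as TGI.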

How the values were obtained:
Assay in all cases: DTP human tumour cell line panel, 48 h
MOLT-4 leukemia = test system: MOLT-4 leukemia
A498 renal = test system: A498 renal
SNB-78 CNS = test system: SNB-78 CNS
HCT-15 colon = test system: HCT-15 colon
SF-268 CNS = test system: SF-268 CNS
A549 NSCLC = test system: A549 NSCLC
RPMI-8226 leukemia = test system: RPMI-8226 leukemia
K-562 leukemia = test system: K-562 leukemia
LOX IMVI melanoma = test system: LOX IMVI melanoma
M14 melanoma = test system: M14 melanoma

Structure (SMILES) | GI50 (MOLT-4 leukemia) [µM] | TGI (MOLT-4 leukemia) [µM] | GI50 (A498 renal) [µM] | TGI (A498 renal) | GI50 (SNB-78 CNS) [µM] | TGI (SNB-78 CNS) [µM] | GI50 (HCT-15 colon) [µM] | TGI (HCT-15 colon) | GI50 (SF-268 CNS) [µM] | TGI (SF-268 CNS) [µM] | GI50 (A549 NSCLC) [µM] | TGI (A549 NSCLC) | GI50 (RPMI-8226 leukemia) [µM] | TGI (RPMI-8226 leukemia) [µM] | GI50 (K-562 leukemia) [µM] | TGI (K-562 leukemia) | GI50 (LOX IMVI melanoma) [µM] | TGI (LOX IMVI melanoma) | TGI (M14 melanoma)
O.O=[Se](=O)(O)O.[NH-]C1CCCCC1[NH-].[Pt+2] (stereo unspecified) | 2.79 | > 100 | 19.4 | 97 µM | 48.4 | > 100 | 8.39 | > 100 µM | 8.09 | > 100 | 5.26 | > 100 µM | 1.12 | > 31.6 | 5.35 | > 100 µM | 8.21 | > 74.7 µM | 
Nc1ncnc2c(C3OC(CO)C(O)C3O)c[nH]c12 (stereo unspecified) |  |  |  | 0.113 µM and 0.0973 µM |  | 1.12 |  | 0.333 µM and 0.3 µM |  | 0.559 |  | 0.0775 µM and 0.434 µM |  |  |  | 0.116 µM and 0.0193 µM |  | 0.0274 µM and < 0.0155 µM | 0.336 µM and 0.225 µM
CC1=NN(C(=O)Cc2ccccc2)C(=O)/C1=C\c1cccc(O)c1 |  | > 100 |  |  |  | > 100 |  | > 100 µM |  | > 100 |  | > 100 µM |  | > 100 |  | > 100 µM |  | > 100 µM | > 100 µM
Cc1cc(Br)cc(C)c1NC(=O)C(=O)C(C(=O)c1ccc(Cl)c(Cl)c1)C1OC(=O)c2ccccc21 (stereo unspecified) |  | > 100 |  | > 100 µM |  | > 100 |  | > 100 µM |  | > 100 |  | > 100 µM |  | > 100 |  | > 100 µM |  | > 100 µM | > 100 µM
COc1ccc(/C(Cl)=C(\C=O)c2ccc(Cl)cc2)cc1 |  | 7.81 |  | 74 µM |  | > 100 |  | > 100 µM |  | 58.7 |  | > 100 µM |  |  |  | > 100 µM |  | 23.8 µM | > 100 µM
COc1cccc2c1C(=O)c1c(O)c3c(c(O)c1C2=O)C[C@](O)(C(=O)CO)CC3OC1CC(N)C(OC2CCCCO2)C(C)O1 (stereo partly specified) |  | 0.0342 |  | 0.766 µM |  | 6.02 |  | 5.14 µM |  | 3.04 |  | 13.3 µM |  | 5.12 |  | 6.5 µM |  | 1.66 µM | 
Cc1ccc(NC(=O)NC23CC4CC(CC(F)(C4)C2)C3)cc1 |  | > 100 |  | > 100 µM |  | > 100 |  |  |  |  |  | > 100 µM |  | 90.2 |  | > 100 µM |  | > 100 µM | > 100 µM
CC(=O)Nc1[nH]c(=O)[nH]c(=O)c1N(C(C)=O)C(C)=O |  | > 100 |  | > 100 µM |  | > 100 |  | > 100 µM |  | > 100 |  | > 100 µM |  | > 100 |  | > 100 µM |  | > 100 µM | > 100 µM
C=C1C(=O)OC2C1CC1OC2C(C)CCC/C(C)=C\CCC1(C)O (stereo unspecified) |  | 21 |  | 60.3 µM |  | 42.9 |  | 63.6 µM |  | 51.8 |  | > 78.3 µM |  | 24.3 |  | 48.5 µM |  | 13.8 µM | 
O=C(NNc1ccc([N+](=O)[O-])cc1)C1OC(CO)C(O)C1O (stereo unspecified) |  | > 100 |  | > 100 µM |  | > 100 |  | > 100 µM |  | > 100 |  | > 100 µM |  | > 100 |  | > 100 µM |  | > 100 µM | > 100 µM
O=c1c2cc(Cl)ccc2n2nnc3ccc(NCCNCCO)c1c32 |  | 6.59 |  | 2.86 µM |  | 9.39 |  | 2.59 µM |  | 8.86 |  | 2.58 µM |  | 10.2 |  | 10.9 µM |  | 1.96 µM | 2.88 µM
CC1Oc2c(c(O)cc3oc(=O)cc(-c4ccccc4)c23)C(=O)C1C (stereo unspecified) |  | > 100 |  | > 100 µM |  | > 100 |  | > 100 µM |  | > 100 |  |  |  | > 100 |  | > 100 µM |  | > 100 µM | > 100 µM
CN(CCc1ccccn1)C(=S)N/N=C/c1ccccn1 |  | < 0.025 |  | 1.3 µM |  |  |  | 35.6 µM |  | > 100 |  | 3.75 µM |  | 0.0424 |  | 0.0493 µM |  | 13.6 µM | 2.34 µM
C[C@@H](CC(O)C(O)C(C)(C)O)C1CCC23CC12CCC1[C@@]2(C)CCC(=O)C(C)(C)C2CC(OC2OC(CO)C(O)C(O)C2O)[C@]13C (stereo partly specified) |  | > 10 |  | > 10 µM |  |  |  | > 10 µM |  | > 10 |  | > 10 µM |  | > 10 |  | > 10 µM |  | > 10 µM | > 10 µM
O=C(O)C1(Cc2ccc3c(c2)CCC3)Cc2cc3c(cc2C1)CCC3 |  | > 100 |  | > 100 µM |  |  |  | > 100 µM |  | > 100 |  | > 100 µM |  | > 100 |  | > 100 µM |  | > 100 µM | > 100 µM
